As a reminder, the pIC50 is −log10 of the IC50, conventionally taken in molar units.

IC50 data for 20 molecules are collected here from EP4786465A1, “NOVEL COMPOUND, AND PHARMACEUTICAL COMPOSITION FOR PREVENTION OR TREATMENT OF CANCER OR TUMORS COMPRISING SAME” (Daewoong Pharmaceutical Co., Ltd., priority 2023, dated 2025).

The structures appear in SMILES notation. pIC50: −log10 of the molar value. Where two headings read alike, the source gives them in different places. Where only a bound is given, the exact number is not on record here.

What all share (format): cell-based
Experiment [1] deals with transcription factor TEAD. Nature of the experiment: Activity inhibition test of transcription factor TEAD (ONE-Glo Luciferase assay, Hippo Pathway TEAD reporter-MCF7 recombinant cell line). As to conditions: Homo sapiens; TEAD Reporter-MCF7 cells, 24 hours treatment, luciferase luminescence. The procedure:
The transcription factor TEAD activity of the compounds prepared in the Examples was measured by the ONE-Glo™ Luciferase assay (Promega, Catalog #E6110) method using the Hippo Pathway TEAD reporter-MCF7 recombinant cell line (BPS Bioscience, Catalog #60618). Specifically, the TEAD Reporter-MCF7 cell line contains the firefly luciferase gene whose expression is regulated under the control of TEAD response elements in the MCF7, which is a human breast cancer cell line. In the cell line, a non-phosphorylated YAP/TAZ exists in the nucleus in a non-stressed condition, which continuously induces expression of the luciferase reporter. TEAD Reporter-MCF7 cells were prepared in 100 µL of cell culture medium (MEM medium, 10% FBS, 1% P/S, 400 µg/mL Geneticin, 1% […], 1 mM NA pyruvate, 10 µg/mL Insulin) in a white clear bottom 96-well microplate. The prepared plate was incubated in a 5% CO2 incubator at 37°C for 24 hours, and then the previously prepared compounds of Examples were finally treated at concentrations of 0.0005, 0.005, 0.05, 0.5 and 5 µM, which were repeated three times for all treatment solutions. The plates treated with the compounds of Examples were incubated in a 5% CO2 incubator at 37°C for 24 hours. 100 µL/well of the substrate aqueous solution containing luciferin was added to a white clear-bottom 96 well microplate, thereby initiating an enzyme reaction. The reaction was performed at room temperature for 5 minutes, and the luminescence (integration time 1000 ms) was measured using a Flexstation3 multi-mode microplate reader. In accordance with the instructions for the ONE-Glo™ Luciferase Assay, the luciferase enzyme activity, which represents the activity of the transcription factor TEAD, was measured by a chemiluminescence method, and the inhibitory activity of the compound according to the present disclosure was calculated. The results of each compound were analyzed using Microsoft Excel, and the IC50 values were calculated by GraphPad Prism software.

The next experiment concerns NCI-H28. Nature of the experiment: Cell growth inhibition test (CellTiter-Glo Luminescent Cell Viability), NCI-H28. As to conditions: Homo sapiens. How it is done:
(§1) The cell growth for the compounds prepared in Examples was measured by CellTiter-Glo® Luminescednt Cell Viability (Promega, Catalog #G7571) method using NCI-H226 (addexbio), NCI-H28 (Korea Cell Line Bank) cell lines. This evaluation method is a method in which when luciferase enzyme is activated by ATP flowing out from living cells, it reacts with a luciferin substrate, and the enzyme activity at this time is measured to confirm cell viability.
(§2) Specifically, NCI-H226, and NCI-H28 cells were prepared in 100 µL of cell culture medium (RPMI medium, 10% FBS, 1% P/S, 4.5 g/L D-Glucose, 2.383 g/L HEPES Buffer, L-Glutamine, 1.5 g/L Sodium Bicarbonate, 110 mg/L Sodium pyruvate) in a white clear bottom 96-well microplate. The prepared plate was incubated in a 5% CO2 incubator at 37°C for 24 hours, and then the previously prepared compounds of Examples were finally treated at concentrations of 0.0005, 0.005, 0.05, 0.5 and 5 µM, which was repeated three times for all treatment solutions. The plates treated with the compounds of Examples were incubated in a 5% CO2 incubator at 37°C. 100 µL/well of the substrate aqueous solution containing luciferin was added to a white clear-bottom 96 well microplate, thereby initiating an enzyme reaction. The reaction was performed at room temperature in the dark for 10 minutes, and the luminescence was measured using a Flexstation3 multi-mode microplate reader. In accordance with the instructions for the CellTiter-Glo™ Luminescednt Cell Viability, the luciferase enzyme activity, which represents the amount of ATP, was measured by a chemiluminescence method, and the inhibitory activity of the compounds according to the present disclosure was calculated. The results of each compound were analyzed using Microsoft Excel, and the IC50 values were calculated using GraphPad Prism software.
In general terms: In ATP-based viability assays light output follows the ATP content of the culture.

The test system of another experiment is NCI-H226. Nature of the experiment: Cell growth inhibition test (CellTiter-Glo Luminescent Cell Viability), NCI-H226. As to conditions: Homo sapiens. The procedure: as §1, §2
The mark [2] stands for this setting: NCI-H28 cells, CellTiter-Glo, read-out: growth IC50 H28.
The mark [3] stands for this setting: NCI-H226 cells, CellTiter-Glo, read-out: growth IC50 H226.

Turning to `C=CC(=O)N1Cc2cc(Nc3ccc(F)cc3)c(-c3cn(C)cn3)cc2C1` [Example 11, 1-(5-((4-fluorophenyl)amino)-6-(1-methyl-1H-imidazol-4-yl)isoindolin-2-yl)prop-2-en-1-one], in experiment [1], the negative logarithm of the IC50 (pIC50) is 5.72.
Take `C=CC(=O)N1CCc2ccc(Nc3ccc(F)cc3)c(-c3cn(C)cn3)c2C1` [Example 12, 1-(7-((4-fluorophenyl)amino)-8-(1-methyl-1H-imidazol-4-yl)-3,4-dihydroisoquinolin-2(1H)-yl)prop-2-en-1-one]: in experiment [1], the pIC50 was < 5.00.
Consider `C=CC(=O)N1CCc2c(ccc(Nc3cc(C(F)(F)F)cc(C(F)(F)F)c3)c2-c2cn(C)cn2)C1` [Example 23, 1-(6-((3,5-bis(trifluoromethyl)phenyl)amino)-5-(1-methyl-1H-imidazol-4-yl)-3,4-dihydroisoquinolin-2(1H)-yl)prop-2-en-1-one], for which the pIC50 in experiment [1] was < 5.30.
Still for that read-out and setting: the value for `C=CC(=O)N1Cc2cc(Nc3ccc(Cl)cc3)c(-c3cn(C)cn3)cc2C1` [Example 19, 1-(5-((4-chlorophenyl)amino)-6-(1-methyl-1H-imidazol-4-yl)isoindolin-2-yl)prop-2-en-1-one] was 6.93.
For the molecule `CNS(=O)(=O)N1Cc2cc(Nc3ccc(C(F)(F)F)cc3)c(-c3cn(C)cn3)cc2C1` [Example 2, N-methyl-5-(1-methyl-1H-imidazol-4-yl)-6-((4-(trifluoromethyl)phenyl)amino)isoindoline-2-sulfonamide], the results for the pIC50 (in the experiment on NCI-H28 (setting [2]); with NCI-H226 (setting [3]); in experiment [1]) were 5.28, 7.05 and 5.84, respectively.
The corresponding values for `C=CC(=O)N1CCc2c(ccc(Nc3ccc(C(F)(F)F)cc3)c2-c2cn(CC)cn2)C1` [Example 24, 1-(5-(1-ethyl-1H-imidazol-4-yl)-6-((4-(trifluoromethyl)phenyl)amino)-3,4-dihydroisoquinolin-2(1H)-yl)prop-2-en-1-one] are < 5.30, 7.10 and 7.81.
Consider `C=CC(=O)N1CCc2c(ccc(Nc3cc(F)cc(F)c3)c2-c2cn(C)cn2)C1` [Example 13, 1-(6-((3,5-difluorophenyl)amino)-5-(1-methyl-1H-imidazol-4-yl)-3,4-dihydroisoquinolin-2(1H)-yl)prop-2-en-1-one], for which the results for the negative-log IC50 (pIC50) (in the experiment with NCI-H28 (setting [2]); in the experiment with NCI-H226 (setting [3]); in experiment [1]) were 5.70, 7.26 and 7.55, respectively.
The corresponding values for `CNS(=O)(=O)N1Cc2ccc(Nc3ccc(C(F)(F)F)cc3)c(-c3cn(C)cn3)c2C1` [Example 6, N-methyl-4-(1-methyl-1H-imidazol-4-yl)-5-((4-(trifluoromethyl)phenyl)amino)isoindoline-2-sulfonamide] are 5.18, 6.03 and 5.81.
Take `C=CC(=O)N1CCc2c(ccc(Nc3ccc(Cl)cc3)c2-c2cn(C)cn2)C1` [Example 15, 1-(6-((4-chlorophenyl)amino)-5-(1-methyl-1H-imidazol-4-yl)-3,4-dihydroisoquinolin-2(1H)-yl)prop-2-en-1-one]: the results for the pIC50 (in the experiment on NCI-H28 (setting [2]); in the experiment on NCI-H226 (setting [3]); in experiment [1]) were 5.62, 7.51 and 8.23, respectively.
Turning to `C=CC(=O)N1CCc2c(ccc(Nc3ccc(C(F)(F)F)cc3)c2-c2cn3c(n2)CCC3)C1` [Example 7, 1-(5-(6,7-dihydro-5H-pyrrolo[1,2-a]imidazol-2-yl)-6-((4-(trifluoromethyl)phenyl)amino)-3,4-dihydroisoquinolin-2(1H)-yl)prop-2-en-1-one], the pIC50 is 5.66 in the experiment with NCI-H28 (setting [2]), 7.42 in the experiment on NCI-H226 (setting [3]) and 7.84 in experiment [1].
On to `C=CC(=O)N1CCc2c(ccc(Nc3cc(Cl)cc(C(F)(F)F)c3)c2-c2cn(C)cn2)C1` [Example 22, 1-(6-((3-chloro-5-(trifluoromethyl)phenyl)amino)-5-(1-methyl-1H-imidazol-4-yl)-3,4-dihydroisoquinolin-2(1H)-yl)prop-2-en-1-one], for which, in experiment [1], the pIC50 was 6.62.
As to `C=CC(=O)N1Cc2ccc(Nc3ccc(C(F)(F)F)cc3)c(-c3cn(C)cn3)c2C1` [Example 5, 1-(4-(1-methyl-1H-imidazol-4-yl)-5-((4-(trifluoromethyl)phenyl)amino)isoindolin-2-yl)prop-2-en-1-one], the pIC50 is 5.70 in the experiment on NCI-H28 (setting [2]), 6.92 with NCI-H226 (setting [3]) and 6.22 in experiment [1].
For `Cn1cnc(-c2cc3c(cc2Nc2ccc(C(F)(F)F)cc2)CN(CC#N)C3)c1` [Example 8, 2-(5-(1-methyl-1H-imidazol-4-yl)-6-((4-(trifluoromethyl)phenyl)amino)isoindolin-2-yl)acetonitrile], the pIC50 was 5.00 in the experiment on NCI-H28 (NCI-H28, read-out: growth IC50 H28); 5.82 with NCI-H226 (NCI-H226, read-out: growth IC50 H226); 5.03 in experiment [1].
Regarding `C=CC(=O)N1CCc2c(ccc(Nc3ccc(Br)cc3)c2-c2cn(C)cn2)C1` [Example 16, 1-(6-((4-bromophenyl)amino)-5-(1-methyl-1H-imidazol-4-yl)-3,4-dihydroisoquinolin-2(1H)-yl)prop-2-en-1-one], the pIC50 is 6.20 in the experiment with NCI-H28 (setting [2]), 7.45 in the experiment on NCI-H226 (setting [3]) and 8.09 in experiment [1].
`C=CC(=O)N1CCc2c(ccc(Nc3cc(Cl)cc(Cl)c3)c2-c2cn(C)cn2)C1` [Example 21, 1-(6-((3,5-dichlorophenyl)amino)-5-(1-methyl-1H-imidazol-4-yl)-3,4-dihydroisoquinolin-2(1H)-yl)prop-2-en-1-one]: the pIC50 with NCI-H28 (setting [2]) is < 5.30; in the experiment with NCI-H226 (setting [3]) it was 7.02; in experiment [1], 7.04.
The corresponding values for `C=CC(=O)N1CCc2c(ccc(Nc3cc(F)c(F)c(F)c3)c2-c2cn(C)cn2)C1` [Example 14, 1-(5-(1-methyl-1H-imidazol-4-yl)-6-((3,4,5-trifluorophenyl)amino)-3,4-dihydroisoquinolin-2(1H)-yl)prop-2-en-1-one] are 5.74, 7.78 and 8.17.
On to `C=CC(=O)N1Cc2cc(Nc3ccc(C(F)(F)F)cc3)c(-c3cn(C)cn3)cc2C1` [Example 1, 1-(5-(1-methyl-1H-imidazol4-yl)-6-((4-(trifluoromethyl)phenyl)amino)isoindolin-2-yl)prop-2-en-1-one], for which the negative logarithm of the IC50 (pIC50) is 5.52 in the experiment on NCI-H28 (setting [2]), 7.67 in the experiment on NCI-H226 (setting [3]) and 7.37 in experiment [1].
For `C=CC(=O)N1CCc2c(ccc(Nc3cccc(C(F)(F)F)c3)c2-c2cn(C)cn2)C1` [Example 20, 1-(5-(1-methyl-1H-imidazol-4-yl)-6-((3-(trifluoromethyl)phenyl)amino)-3,4-dihydroisoquinolin-2(1H)-yl)prop-2-en-1-one], the pIC50 in the experiment with NCI-H28 (setting [2]) was 5.95; in the experiment on NCI-H226 (setting [3]), 6.86; in experiment [1], 7.35.
Turning to `C=CC(=O)N1CCc2c(ccc(Nc3cc(F)c(C(F)(F)F)c(F)c3)c2-c2cn(C)cn2)C1` [Example 17, 1-(6-((3,5-difluoro-4-(trifluoromethyl)phenyl)amino)-5-(1-methyl-1H-imidazol-4-yl)-3,4-dihydroisoquinolin-2(1H)-yl)prop-2-en-1-one], the pIC50 is 5.48 in the experiment with NCI-H28 (setting [2]), 8.02 in the experiment with NCI-H226 (setting [3]) and 8.07 in experiment [1].
Consider `C=CC(=O)N1Cc2cc(Nc3cc(F)c(F)c(F)c3)c(-c3cn(C)cn3)cc2C1` [Example 18, 1-(5-(1-methyl-1H-imidazol-4-yl)-6-((3,4,5-trifluorophenyl)amino)isoindolin-2-yl)prop-2-en-1-one], for which the negative logarithm of the IC50 (pIC50) in experiment [1] was 6.62.
